PubChem BioAssay (NCI)
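Briefly, cells in 96-well plates were exposed to five compound concentrations for 48 h, and endpoints were estimated by linear interpolation. The concentration for full growth arrest is given as TGI.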

What was measured:
Assay in all cases: NCI tumour cell line growth inhibition, 48 h
[1] = test system: MOLT-4 leukemia
[2] = test system: NCI-H226 lung
[3] = test system: HOP-62 NSCLC
[4] = test system: K-562 leukemia
[5] = test system: OVCAR-5 ovarian
[6] = test system: HT29 colon
[7] = test system: MCF7 breast
[8] = test system: SK-MEL-28 melanoma
[9] = test system: SF-295 CNS
[10] = test system: SNB-75 CNS
[11] = test system: MDA-N
[12] = test system: HCT-116 colon
[13] = test system: PC-3 prostate
[14] = test system: OVCAR-4 ovarian

COc1ccc2c(c1C)C(=O)C(O)(CC=C(C)C)O2 (stereo unspecified)
TGI [1]: > 100 µM
TGI [2]: > 100 µM
TGI [3]: > 100 µM
TGI [4]: > 100 µM
TGI [5]: > 100 µM
TGI [6]: > 100 µM
TGI [7]: > 100 µM
TGI [8]: > 100 µM
TGI [9]: > 100 µM
TGI [10]: > 100 µM
TGI [11]: > 100 µM
TGI [12]: > 100 µM
TGI [13]: > 100 µM

CC1=CC(C2/C(=N/O)C=C(C)CC2(C)C)C(O)C(C)(C)C1 (stereo unspecified)
TGI [1]: 31.3 µM
TGI [2]: 33.7 µM
TGI [3]: 29.5 µM
TGI [4]: 32.1 µM
TGI [5]: 34.8 µM
TGI [14]: 29.8 µM
TGI [6]: 29.3 µM
TGI [7]: 30.4 µM
TGI [8]: 30.9 µM
TGI [9]: 32.9 µM
TGI [10]: 29.2 µM
TGI [11]: 31.9 µM
TGI [12]: 29.3 µM
TGI [13]: 29.8 µM

COc1ccc2c(c1)CN1C(=N2)CSC1c1cc([N+](=O)[O-])ccc1Cl (stereo unspecified)
TGI [1]: > 100 µM
TGI [2]: > 100 µM
TGI [3]: > 100 µM
TGI [4]: > 100 µM
TGI [5]: > 100 µM
TGI [14]: > 100 µM
TGI [6]: 75.8 µM
TGI [7]: > 100 µM
TGI [9]: > 100 µM
TGI [10]: > 100 µM
TGI [11]: > 100 µM
TGI [12]: > 100 µM
TGI [13]: > 100 µM

Cn1ccc(C(=O)NCCOCCNC(=O)c2ccn(C)c(=O)c2O)c(O)c1=O
TGI [2]: > 100 µM
TGI [14]: > 100 µM
TGI [6]: > 100 µM
TGI [8]: > 100 µM
TGI [11]: > 100 µM
TGI [12]: > 100 µM
TGI [13]: > 100 µM

C=CCN1C[C@H](C)N([C@H](c2ccc(C(=O)N(CC)CCO)cc2)c2cccc(OC)c2)C[C@H]1C
TGI [1]: > 100 µM
TGI [2]: > 100 µM
TGI [3]: > 100 µM
TGI [5]: > 100 µM
TGI [14]: > 100 µM
TGI [6]: > 100 µM
TGI [7]: > 100 µM
TGI [8]: > 100 µM
TGI [9]: > 100 µM
TGI [11]: > 100 µM
TGI [12]: > 100 µM
TGI [13]: > 100 µM

CCC1OC2C(CC=C(C)C)=C3OC(C)(O)C(C)(CC)C(OC(=O)c4ccccc4)C3=C3OC(=O)C=C1C32 (stereo unspecified)
TGI [1]: > 100 µM
TGI [3]: > 100 µM
TGI [4]: > 100 µM
TGI [5]: > 100 µM
TGI [6]: > 100 µM
TGI [7]: > 100 µM
TGI [8]: > 100 µM
TGI [9]: > 100 µM
TGI [10]: > 100 µM
TGI [11]: 44.4 µM
TGI [12]: > 100 µM
TGI [13]: > 100 µM

O=C(O)c1nc(-c2ccccn2)c(-c2ccccn2)nc1C(=O)O
TGI [1]: > 28.3 µM
TGI [2]: 4.7 µM
TGI [3]: 15.3 µM
TGI [4]: > 100 µM
TGI [5]: 18.3 µM
TGI [14]: 12.5 µM
TGI [6]: 8.54 µM
TGI [8]: 11.1 µM
TGI [9]: 21.8 µM
TGI [10]: 11.6 µM
TGI [11]: 29.2 µM
TGI [12]: 5.6 µM
TGI [13]: 20.9 µM

CNC(=S)N/N=C(C)\C(=N/NC(=S)NC)c1ccccc1
TGI [2]: > 100 µM
TGI [3]: > 100 µM
TGI [5]: > 100 µM
TGI [7]: > 100 µM
TGI [9]: > 100 µM
TGI [10]: > 100 µM
TGI [11]: > 100 µM
TGI [12]: > 100 µM
TGI [13]: > 100 µM

COc1ccc2c3c1O[C@H]1C(O)CCC4(O)[C@@H](C2)NCC[C@]314 (stereo partly specified)
TGI [1]: > 100 µM
TGI [2]: > 100 µM
TGI [3]: > 100 µM
TGI [4]: > 100 µM
TGI [5]: > 100 µM
TGI [14]: > 100 µM
TGI [6]: > 100 µM
TGI [7]: > 100 µM
TGI [8]: > 100 µM
TGI [9]: > 100 µM
TGI [11]: > 100 µM
TGI [12]: > 100 µM
TGI [13]: > 100 µM
